Data as given in patent US9573970B2, “4-{4-[(1E)-4-(2,9-diazaspiro[5.5]undec-2-yl)but-1-en-1-yl]-2-methylbenzyl}-5-(propan-2-yl)-1H-pyrazol-3-yl beta-D glucopyranoside acetate” (Eli Lilly and Company, priority 2013, dated 2017).

Tested on: male rats with STZ-induced diabetes
Assay: Mixed meal tolerance test (MTT) in male rats with streptozotocin induced diabetes
Assay type: in vivo, rat
Details: 60 mg/kg oral, mean ± SE
Method: The test compound is formulated by adding a vehicle of 1% hydroxyethylcellulose (HEC), 0.25% Tween® 80 w/antifoam 0.05% to preweighed test compound to make a 2.5 mg/ml solution. The mixture is probe sonicated for approximately 30 seconds. The resulting solution is used as a stock solution, from which the lower concentration dose solutions are prepared by dilution with the vehicle. STZ, 45 mg/kg, is formulated by dissolving in 0.1M Citrate buffer in 3 ml aliquots and stored in the dark on ice, when not being administered. A high fat content mixed meal (Bio-Serv® Rodent Diet F3282 High Fat) comprising Fat Calories (60%), Carbohydrate Calories (26%) and Protein Calories (15%) is utilized. Single housed Sprague Dawley rats are allowed to acclimate for a period of 3 to 7 days.
In an effort to ensure that the animals have not recently fed, STZ is administered in the afternoon, approximately six hours into the light cycle (lights on 6 am, lights off 6 pm). The animals are anesthetized with isoflurane and STZ is delivered via tail vein injection. Once animals regain consciousness, they are returned to housing and allowed to recover for 7 days.
On the two days immediately prior to the meal tolerance test (MTT) all rats are given a small amount (2-4 g) of the F3282 diet, so they became acclimated to it prior to receiving it during the experiment. On the evening before the experiment, the rats are moved into clean cages and their food is removed. The following morning animals are weighed and a blood sample is taken by tail snip for glucose measurement (Abbott AlphaTRAK™ glucometers: code 29) Animals are grouped n=6 based on fasted body weight and glucose. Thirty minutes after the test compound is orally administered, two glucose measurements are collected. Then a five gram pellet of Bio-Serv® diet 3282 is given. After 20 minutes remaining food is taken away and weighed. Blood samples are taken at 20, 40, 60 and 120 minutes for glucose measurement.

## C[C@H]1O[C@H](O[C@H]2[C@H](O)[C@@H](O)[C@@H](O[C@H]3[C@H](O)[C@@H](O)C(O)O[C@@H]3CO)O[C@@H]2CO)[C@H](O)[C@@H](O)[C@@H]1N[C@H]1C=C(CO)[C@@H](O)[C@H](O)[C@H]1O (stereo partly drawn) [Acarbose, reference compound]
30 min after compound, before meal
  Glucose value, 0 min.: 124 ± 16.9 mg/dL
MTT
  Baseline Adjusted AUC (glucose): 23877 ± 4649
  Glucose value, 20 min.: 181 ± 22.8 mg/dL
  Glucose value, 40 min.: 301.3 ± 51.2 mg/dL
  Glucose value, 60 min.: 371.5 ± 63.9 mg/dL
  Glucose value, 120 min.: 433.7 ± 83 mg/dL
